Where a name gives a salt, the structure may show the parent alone.
Molecular target: T1, TLR7 (Homo sapiens, UniProt Q9NYK1)
T1 construct: host or cells: HEK-Blue cells (human HEK) co-expressing TLR7 and an NF-kB/AP1-inducible SEAP reporter
T1 sequence (Q9NYK1 27-1049): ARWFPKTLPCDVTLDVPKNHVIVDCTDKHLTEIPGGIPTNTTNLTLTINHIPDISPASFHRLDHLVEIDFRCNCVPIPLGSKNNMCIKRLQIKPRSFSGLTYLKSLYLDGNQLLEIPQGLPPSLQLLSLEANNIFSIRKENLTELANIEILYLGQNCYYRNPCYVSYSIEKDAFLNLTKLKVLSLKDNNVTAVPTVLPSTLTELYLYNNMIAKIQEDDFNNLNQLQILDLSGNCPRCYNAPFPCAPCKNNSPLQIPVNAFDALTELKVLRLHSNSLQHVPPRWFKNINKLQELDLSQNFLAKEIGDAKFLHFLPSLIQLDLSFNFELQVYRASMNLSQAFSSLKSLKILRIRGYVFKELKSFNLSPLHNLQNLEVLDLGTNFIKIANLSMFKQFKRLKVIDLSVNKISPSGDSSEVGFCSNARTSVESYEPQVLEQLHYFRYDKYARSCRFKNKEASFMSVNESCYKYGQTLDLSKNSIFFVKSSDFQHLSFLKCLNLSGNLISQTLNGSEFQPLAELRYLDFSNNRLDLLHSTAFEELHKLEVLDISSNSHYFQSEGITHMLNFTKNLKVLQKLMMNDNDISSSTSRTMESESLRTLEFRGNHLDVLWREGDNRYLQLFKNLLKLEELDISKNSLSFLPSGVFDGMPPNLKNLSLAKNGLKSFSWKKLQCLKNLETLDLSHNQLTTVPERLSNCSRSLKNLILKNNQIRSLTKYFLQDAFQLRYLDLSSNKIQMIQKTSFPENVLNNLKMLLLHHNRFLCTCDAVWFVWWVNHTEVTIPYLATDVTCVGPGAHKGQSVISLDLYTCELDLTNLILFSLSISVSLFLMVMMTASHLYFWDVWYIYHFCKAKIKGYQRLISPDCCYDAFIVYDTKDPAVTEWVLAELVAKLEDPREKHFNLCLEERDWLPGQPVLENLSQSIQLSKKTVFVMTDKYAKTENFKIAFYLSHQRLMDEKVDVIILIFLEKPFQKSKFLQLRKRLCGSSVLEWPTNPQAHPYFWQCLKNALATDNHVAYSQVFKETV
Experiment: In vitro human TLR7 binding reporter assay (HEK-Blue, NF-kB/AP1-inducible SEAP)
Format: cell-based
Settings: activity range symbols
Procedure, shortened: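 Reporter cells are plated at 15,000 per well and rested 24 h. Next day, test compounds or DMSO are dispensed, followed by 18 h incubation at 37 °C, 5% CO2.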

| Compound | EC50 |
| --- | --- |
| CCNCc1nc2c(N)nc3cc(OC)ccc3c2[nH]1 [Compound 154] | > 100 µM |
| CCN(Cc1nc2c(N)nc3cc(-c4ncc[nH]4)ccc3c2[nH]1)C(=O)OC(C)(C)C [Compound 155] | > 100 µM |
| CCN(Cc1nc2c(N)nc3cc(OC)ccc3c2[nH]1)C(C)=O [Compound 158, N-((4-Amino-7-methoxy-1H-imidazo[4,5-c]quinolin-2-yl)methyl)-N-ethylacetamide] | > 100 µM |
| CCN(Cc1nc2c(N)nc3cc(Cl)c(Cl)cc3c2[nH]1)C(C)=O [Compound 159] | > 100 µM |
| CCNCc1nc2c(N)nc3cc(-c4ncc[nH]4)ccc3c2[nH]1 [Compound 162] | > 100 µM |
| CCN(Cc1nc2c(N)nc3cc(-c4cc[nH]n4)ccc3c2[nH]1)CC(C)C [Compound 453, 2-{[ethyl(2-methylpropyl)amino]methyl}-7-(1H-pyrazol-3-yl)-1H-imidazo[4,5-c]quinolin-4-amine] | > 100 µM |
| CCN(CC)C(=O)N(CC)Cc1nc2c(N)nc3cc(-c4cc[nH]n4)ccc3c2[nH]1 [Compound 454, 1-{[4-amino-7-(1H-pyrazol-3-yl)-1H-imidazo[4,5-c]quinolin-2-yl]methyl}-1,3,3-triethylurea] | > 100 µM |
| CCN(Cc1nc2c(N)nc3cc(-c4cc[nH]n4)ccc3c2[nH]1)C(=O)N1CCOCC1 [Compound 455, N-{[4-amino-7-(1H-pyrazol-3-yl)-1H-imidazo[4,5-c]quinolin-2-yl]methyl}-N-ethylmorpholine-4-carboxamide] | > 100 µM |
| CCN(Cc1nc2c(N)nc3cc(-c4cc[nH]n4)ccc3c2[nH]1)C(=O)NC(C)(C)C [Compound 456, 1-{[4-amino-7-(1H-pyrazol-3-yl)-1H-imidazo[4,5-c]quinolin-2-yl]methyl}-3-tert-butyl-1-ethylurea] | > 100 µM |
| CCNC(=O)N(CC)Cc1nc2c(N)nc3cc(-c4cc[nH]n4)ccc3c2[nH]1 [Compound 457, 1-{[4-amino-7-(1H-pyrazol-3-yl)-1H-imidazo[4,5-c]quinolin-2-yl]methyl}-1,3-diethylurea] | > 100 µM |
| CCN(Cc1nc2c(N)nc3cc(-c4cc[nH]n4)ccc3c2[nH]1)S(=O)(=O)N(C)C [Compound 458, 2-{[(dimethylsulfamoyl)(ethyl)amino]methyl}-7-(1H-pyrazol-3-yl)-1H-imidazo[4,5-c]quinolin-4-amine] | > 100 µM |
| CCN(Cc1nc2c(N)nc3cc(-c4cc[nH]n4)ccc3c2[nH]1)S(=O)(=O)C(C)C [Compound 459, N-{[4-amino-7-(1H-pyrazol-3-yl)-1H-imidazo[4,5-c]quinolin-2-yl]methyl}-N-ethylpropane-2-sulfonamide] | > 100 µM |
| CCCS(=O)(=O)N(CC)Cc1nc2c(N)nc3cc(-c4cc[nH]n4)ccc3c2[nH]1 [Compound 460, N-{[4-amino-7-(1H-pyrazol-3-yl)-1H-imidazo[4,5-c]quinolin-2-yl]methyl}-N-ethylpropane-1-sulfonamide] | > 100 µM |
| CCNCc1nc2c(N)nc3cc(-c4ccn[nH]4)ccc3c2n1CCO [Compound 462, 2-[4-Amino-2-[(ethylamino)methyl]-7-(1H-pyrazol-5-yl)-1H-imidazo[4,5-c]quinolin-1-yl]ethan-1-ol] | > 100 µM |
| CCn1c(CN2CCCC2=O)nc2c(N)nc3cc(-c4cccs4)ccc3c21 [Compound 463, 1-{[4-amino-1-ethyl-7-(thiophen-2-yl)-1H-imidazo[4,5-c]quinolin-2-yl]methyl}pyrrolidin-2-one] | > 100 µM |
| CCNCc1nc2c(N)nc3cc(-c4ccn[nH]4)ccc3c2n1CC [Compound 464, 1-ethyl-2-[(ethylamino)methyl]-7-(1H-pyrazol-5-yl)-1H-imidazo[4,5-c]quinolin-4-amine] | > 100 µM |
| CCn1c(CN2CCCC2=O)nc2c(N)nc3cc(-n4cccn4)ccc3c21 [Compound 465, 1-{[4-amino-1-ethyl-7-(1H-pyrazol-1-yl)-1H-imidazo[4,5-c]quinolin-2-yl]methyl}pyrrolidin-2-one] | > 100 µM |
| CCn1c(CN2CCCC2=O)nc2c(N)nc3cc(-c4ccn[nH]4)ccc3c21 [Compound 466, 1-{[4-amino-1-ethyl-7-(1H-pyrazol-5-yl)-1H-imidazo[4,5-c]quinolin-2-yl]methyl}pyrrolidin-2-one] | > 100 µM |
| CCNCc1nc2c(N)nc3cc(-n4cccn4)ccc3c2n1CC [Compound 467, 1-ethyl-2-((ethylamino)methyl)-7-(1H-pyrazol-1-yl)-1H-imidazo[4,5-c]quinolin-4-amine] | > 100 µM |
| CCNCc1nc2c(N)nc3cc(-c4cccs4)ccc3c2n1CC [Compound 468, 1-ethyl-2-[(ethylamino)methyl]-7-(thiophen-2-yl)-1H-imidazo[4,5-c]quinolin-4-amine] | > 100 µM |
| Nc1nc2cc(-c3cccs3)ccc2c2c1nc(CN1CCCC1=O)n2CCO [Compound 469, 1-{[4-amino-1-(2-hydroxyethyl)-7-(thiophen-2-yl)-1H-imidazo[4,5-c]quinolin-2-yl]methyl}pyrrolidin-2-one] | > 100 µM |
| CCC(=O)N(CC)Cc1nc2c(N)nc3cc(-c4cccs4)ccc3c2n1CCO [Compound 470, N-{[4-amino-1-(2-hydroxyethyl)-7-(thiophen-2-yl)-1H-imidazo[4,5-c]quinolin-2-yl]methyl}-N-ethylpropanamide] | > 100 µM |
| CCNCc1nc2c(N)nc3cc(-c4cccs4)ccc3c2n1CCO [Compound 471, 2-{4-amino-2-[(ethylamino)methyl]-7-(thiophen-2-yl)-1H-imidazo[4,5-c]quinolin-1-yl}ethan-1-ol] | > 100 µM |
| CCN(Cc1nc2c(N)nc3cc(-c4cccs4)ccc3c2n1CC)C(C)=O [Compound 472, N-{[4-amino-1-ethyl-7-(thiophen-2-yl)-1H-imidazo[4,5-c]quinolin-2-yl]methyl}-N-ethylacetamide] | > 100 µM |

Now from value to compound:

| EC50 | Compound |
| --- | --- |
| > 100 µM | CCNCc1nc2c(N)nc3cc(-c4cc[nH]n4)ccc3c2[nH]1 [Compound 101, 2-[(Ethylamino)methyl]-7-(1H-pyrazol-3-yl)-1H-imidazo[4,5-c]quinolin-4-amine hydrochloride] |
| > 100 µM | CC(=O)N(C)Cc1nc2c(N)nc3cc(-n4cccn4)ccc3c2[nH]1 [Compound 102, N-((4-Amino-7-(1H-pyrazol-1-yl)-1H-imidazo[4,5-c]quinolin-2-yl)methyl)-N-methylacetamide] |
| > 100 µM | CN(Cc1nc2c(N)nc3cc(-n4cccn4)ccc3c2[nH]1)S(C)(=O)=O [Compound 119] |
| > 100 µM | CN(Cc1nc2c(N)nc3cc(-c4cc[nH]n4)ccc3c2[nH]1)C(=O)C1CC1 [Compound 120] |
| > 100 µM | CCN(Cc1nc2c(N)nc3cc(-c4cc[nH]n4)ccc3c2n1C)C(C)=O [Compound 121] |
| > 100 µM | CCC(=O)N(C)Cc1nc2c(N)nc3cc(-c4cc[nH]n4)ccc3c2[nH]1 [Compound 122] |
| > 100 µM | CCN(Cc1nc2c(N)nc3cc(-c4cc[nH]n4)ccc3c2[nH]1)S(C)(=O)=O [Compound 124] |
| > 100 µM | CCC(=O)N(CC)Cc1nc2c(N)nc3cc(-c4cc[nH]n4)ccc3c2[nH]1 [Compound 125] |
| > 100 µM | CCN(Cc1nc2c(N)nc3cc(-c4cc[nH]n4)ccc3c2[nH]1)C(=O)NC [Compound 128] |
| > 100 µM | CC(=O)N(C)Cc1nc2c(N)nc3cc(-c4cc[nH]n4)ccc3c2[nH]1 [Compound 129] |
| > 100 µM | CCN(Cc1nc2c(N)nc3cc(-n4cccn4)ccc3c2[nH]1)C(N)=O [Compound 130] |
| > 100 µM | NCc1nc2c(N)nc3cc(-c4cc[nH]n4)ccc3c2[nH]1 [Compound 131] |
| > 100 µM | CCN(Cc1nc2c(N)nc3cc(-n4nccn4)ccc3c2[nH]1)C(C)=O [Compound 132] |
| 20 to 100 µM | CC(c1nc2c(N)nc3cc(-c4cccnc4)ccc3c2[nH]1)N1CCCC1=O (centres unmarked) [Compound 138] |
| > 100 µM | CC(=O)N(Cc1nc2c(N)nc3cc(-c4cc[nH]n4)ccc3c2[nH]1)C(C)C [Compound 140] |
| > 100 µM | Nc1nc2ccc(Cl)cc2c2[nH]c(CN3CCCC3=O)nc12 [Compound 141] |
| > 100 µM | CC(C)(C)OC(=O)NCc1nc2c(N)nc3cc(-c4cc[nH]n4)ccc3c2[nH]1 [Compound 142] |
| 20 to 100 µM | Nc1nc2cc(Cl)ccc2c2[nH]c(CN3CCCC3=O)nc12 [Compound 143] |
| 20 to 100 µM | Nc1nc2cc(-c3ccc(Cl)nc3)ccc2c2[nH]c(CN3CCCC3=O)nc12 [Compound 153] |
| 20 to 100 µM | Nc1nc2cc(-n3ncc4ccccc43)ccc2c2[nH]c(CN3CCCC3=O)nc12 [Compound 157] |
